The results in this text go back to a melting point compilation (Tetko et al.; mined from patent text by program, amines drawn as free bases though some values may be those of a salt).

For orientation: melting point means the temperature, or range, at which the solid turns liquid. Regarding `O=C(O)c1ccccc1C(=O)c1ccc(O)cc1`, the melting point fell in the range of 124 to 128 °C.

Regarding `N#Cc1cc([N+](=O)[O-])[nH]c1-c1ccc(Cl)cc1`, the melting point was in the range of 201 to 206 °C.

On to `CCC(C)(Oc1ccc(CNc2ccc(Cl)cc2)cc1)C(=O)O` (stereo not given), for which the melting point is 152 to 153 °C.

In turn, `N#Cc1c(Cl)cccc1SSc1ccc([N+](=O)[O-])cc1C(Cl)(Cl)Cl` yielded a melting point of 137 °C.

The compound `CCCC1=C(C(=O)OCC)C(c2cccc3c2OCCC3)c2c[nH]nc2N1` (stereo not given) returned a melting point of 159 to 161 °C.

On to `CNC(=O)[C@H](C)C[C@H](O)[C@H](CC1CCCCC1)NC(=O)OC(C)(C)C`, for which the melting point fell in the range of 144 to 145 °C.

In turn, `Cc1cc(-c2cc3nccnc3[nH]2)cn1C` yielded a melting point of 253 °C.

`S=C=Nc1ccc(-c2nc(-c3ccco3)no2)cc1` returned a melting point of 136 to 137 °C.

As to `Cc1noc(-c2ccccc2NC(=O)OC2CCNCC2)n1`, the melting point fell in the range of 141 to 142 °C.

Take `CC1(C)CN2C(=NS(=O)C2=Nc2ccc(Cl)cc2)S1` (stereo not given): the melting point was in the range of 121 to 124 °C.

Consider `CC(C)(CCCCOCCCc1ccccc1)NCc1c(CO)ccc(O)c1CO`, for which the melting point lay in the range of 67 to 69 °C.

In the case of `CCCNc1c(C#N)cnn1-c1ccc(Cl)c(Cl)c1Cl`, the melting point fell in the range of 95 to 98 °C.

The compound `NC(=O)CCNC(=O)c1cccc(-c2cccc3oc(Cc4cccc(C(F)(F)F)c4)cc23)c1` showed a melting point of 155 to 156 °C.

`CCOC(=O)c1nc(C)n2c1CN=C(c1ccccc1F)c1cc(C#N)ccc1-2`: the melting point fell in the range of 272 to 274 °C.

The compound `CCCn1nnn(-c2cc(OC(C)C)c(CBr)cc2Cl)c1=O` yielded a melting point of 68 to 70 °C.

With `COc1ccc(C(=CC#N)c2cccc(N)c2)cc1OC`, the melting point lay within 100 to 101 °C.

In the case of `CN(C)c1ccncc1CCCOc1ccccc1OCCCC(=O)O`, the melting point lay within 106 to 108 °C.

Compound `CC(C)(C)OC(=O)CON=C(c1ccccc1)c1cc2ccncc2[nH]1` came in with a melting point of 47 to 52 °C.

On to `CC(C)CCOc1ccc(OCn2cnc(Cl)c2Cl)cc1`, for which the melting point fell in the range of 105 to 108 °C.

With `CCOC(=O)c1c(SC)nc(-c2ccc(SC)cc2)n(-c2ccc(F)cc2)c1=O`, the melting point was 151 to 155 °C.

The compound `Cc1sc2nc(C=O)c(C)c(=O)n2c1C` gave a melting point of 170 to 173 °C.

For `CCCCCCCCCCCCC1C=CC(Oc2ccc(C(=O)O)o2)=C2N=C3CCCCC3=C21` (stereo not given), the melting point was 110 to 112 °C.

With `COc1cc(C=O)c([N+](=O)[O-])cc1OCCCCCCOC(C)=O`, the melting point fell in the range of 79.8 to 81.5 °C.

For `CCC(C)(C)c1cc(-c2c[nH]c(C=C3SC(N4CCOCC4)=NC3=O)c2)ccc1O`, the melting point was found to be 314 °C.

Take `COc1cc2c(cc1OC)CCC(C(=O)NO)=C2`: the melting point is 179 to 180 °C.

`CCOCCn1c(CN2CCN(CC(O)COc3ccccc3)CC2)nc2cccnc21` (stereo not given) displayed a melting point of 102 °C.

Take `COC(=O)C(C(C)C)N(C)S(=O)(=O)c1ccc(-c2ccc(NC(=O)c3oc4cccc(C(O)CO)c4c3C)cc2)cc1` (stereo not given): the melting point was in the range of 182 to 185 °C.

`O=c1nc(-c2ccncc2O)nc2n(C3CCCC3)[nH]c(C(F)(F)F)c1-2` returned a melting point of 205 to 206 °C.

`CCOc1ncnc(OCC)c1NC(N)=S` came in with a melting point of 212 °C.

The compound `COC(=O)C(CCSC)N(C(=O)OC(C)(C)C)C(=O)c1ccc(N)cc1` (stereo not given) yielded a melting point of 184 to 185 °C.

`CC(C)(C)NC(=O)C1CCC2C3CC=C4C=C(C#N)CCC4(C)C3CCC12C` (stereo not given) came in with a melting point of 198 to 200 °C.

Consider `O=C1c2ccc([N+](=O)[O-])cc2COc2cc(Nc3ccc(F)cc3[N+](=O)[O-])ccc21`, for which the melting point turned out to be 211 °C.

`CCOC(=O)c1c(CN2CCCC2)nc2cc(OC)c(OC)cc2c1-c1ccc(OC)c(OC)c1` showed a melting point of 139 to 140 °C.

The compound `COc1ccc(-c2ccc3c(c2)C=C(C(=O)Nc2ccc(CN(C)C4CCOCC4)cc2)CCS3(=O)=O)cc1OC` registered a melting point of 195 to 197 °C.

`CC(=O)Nc1ccc(S(=O)(=O)NCc2noc(-c3c4ccccc4nn3CCn3ccnc3)n2)cc1`: the melting point was in the range of 160 to 161 °C.

Compound `CN(C)C(=O)N(C)Cc1cccc2c1C(=O)N(C1CCC(=O)NC1=O)C2=O` (stereo not given) came in with a melting point of 206 to 208 °C.

Regarding `Nc1ccc(C=CC(=O)N2CCc3c([nH]c4ccccc34)C2c2ccc3c(c2)OCO3)cc1` (stereo not given), the melting point was 262 to 265 °C.

`COc1nc(C2CC2)nc(C(Cl)(Cl)Cl)n1` gave a melting point of 49 to 51 °C.

In turn, `c1ccc(OCCSCc2nnc(-c3ccc(OCCN4CCOCC4)cc3)o2)cc1` yielded a melting point of 70 to 72 °C.

In turn, `O=C1OC(CCO)c2ccccc21` (stereo not given) gave a melting point of 122 to 124 °C.

Turning to `COC(=O)c1cc([N+](=O)[O-])ccc1OC(C)=O`, the melting point was 70 to 72 °C.

`c1ccc(OCCSCc2nnc(-c3ccc(OCCCN4CCCCCC4)cc3)o2)cc1` registered a melting point of 50 °C.

On to `CCCCC1COC(c2ccc(OC(F)(F)F)cc2)OC1` (stereo not given), for which the melting point was 23 °C.

In turn, `CCNC(=O)C[C@@H]1N=C(c2ccc(Cl)cc2)c2cc(OC)ccc2-n2c(C)nnc21` showed a melting point above 140 °C.

Compound `COC(=O)NCOC(=O)N=CNc1c(Cc2cccnc2)c[nH]c1C(=O)OC` returned a melting point of 160 to 162 °C.

For `CCN(CC)CCNC(=O)N1CCCC(S(=O)(=O)c2ccc(F)cc2)C1` (stereo not given), the melting point was in the range of 137 to 138 °C.

`CCC(=O)Oc1cc(C(=O)c2c(Cl)cccc2Cl)c(C)cc1OC` yielded a melting point of 142 to 145 °C.

For the compound `CS(=O)(=O)c1ccc(-c2cnn(CC(F)(F)F)c(=O)c2N)cc1`, the melting point is above 260 °C.

Compound `O=c1cc(O)c(Cl)cn1COCc1ccccc1` registered a melting point of 165 to 167 °C.

As for `CC=CC(=O)C1C(C)CCCC1(C)C` (stereo not given), the melting point lay in the range of 8 to 9 °C.

Compound `NNC(=O)C1=Nc2cccc3c(=O)[nH]nc(c23)N1` came in with a melting point above 300 °C.

With `OC1CCc2cc(Cl)c(Cl)cc21` (stereo not given), the melting point is 84 °C.

`COc1ccc(C(=O)O)cc1OC(C)(C)C` returned a melting point of 177 to 178 °C.

The compound `CN1CCN(c2ncc(-c3ccc(Cl)cc3Cl)c(N)n2)CC1` showed a melting point of 137 °C.

The compound `O=C(OC1CNC(=N[N+](=O)[O-])NC1)C1(C2CCCCC2)CCCCC1` (stereo not given) had a melting point of 196 to 197 °C.

Consider `O=C1Cc2cccc(Oc3ccccc3)c2O1`, for which the melting point fell in the range of 60 to 61 °C.

Regarding `O=C(Cl)c1ccccc1NC(=O)c1ccccc1-c1ccccc1`, the melting point lay within 118 to 120 °C.

`O=C(NCc1ccccc1)C12CC3CC(CC(C3)C1)C2`: the melting point was 170 to 172 °C.

In turn, `Cc1nc(-c2ccc(OCC(F)(F)C(F)F)cc2)sc1C(=O)O` had a melting point of 167 to 168 °C.

As for `Cn1c2ccccc2c2cc(NC(=O)c3ccccc3Cl)ccc21`, the melting point came out at 206 °C.

Take `CCOC(=O)c1cccn2cc(C)nc12`: the melting point was in the range of 62 to 64 °C.

`O=C(O)c1cc2n(n1)CCC2`: the melting point lay in the range of 140 to 145 °C.

`COc1nc(Nc2ccc(F)cc2F)c(C(=O)O)cc1F` returned a melting point of 237 to 240 °C.

Turning to `CCCc1oc2ccc([N+](=O)[O-])cc2c1C(=O)c1ccc(O)cc1`, the melting point was 119 °C.

`NC(=O)c1ccc2c(c1-c1c(C(N)=O)ccc3c1OCO3)OCO2` showed a melting point of 249 to 250 °C.

In turn, `Cc1cc(C)c(C2C(=O)N3CCCCN3C2=O)c(C)c1` displayed a melting point of 247 to 248 °C.

For the compound `CCC(CC)Nc1nc2c(c(-c3c(C)cc(C)cc3C)cn2C)c(=O)n1C`, the melting point was in the range of 174 to 176 °C.

For `COCOc1cc(C(F)(F)F)ccc1-c1cc(-c2cccc([N+](=O)[O-])c2)c(C#N)c(NC(=O)c2cccs2)n1`, the melting point was 139 to 140 °C.

For `O=C1CC2(CCCC2)C(=O)N1c1cc(Cc2n[nH]c(=O)c3ccccc23)ccc1F`, the melting point is 215 to 220 °C.

On to `O=C(NC(C(=O)O)c1ccc[nH]1)OCC(Cl)(Cl)Cl` (stereo not given), for which the melting point stood at 111 °C.

`CCSC(C)(C)C(=O)CC(=O)Nc1cc(NC(=O)C(CC)Oc2ccc(C(C)(C)CC)cc2C(C)(C)CC)ccc1Cl` (stereo not given) had a melting point of 65 to 68 °C.

The compound `O=C(Oc1ccc(OC(=O)c2cc(O)cc(O)c2)c2ccccc12)c1cc(O)cc(O)c1` gave a melting point of 201 to 203 °C.

In the case of `Cn1ncnc1COc1nc2c(cc1-c1ccsc1)nnn2-c1ccccc1F`, the melting point is 133 to 135 °C.

Compound `C=CCN1C2CCC1C1CCC2N1C(c1ccc(C(=O)N(C)C)cc1)c1cccc(O)c1` (stereo not given) showed a melting point of 99 to 101 °C.

For `COc1cc2ncn(CCCCCl)c(=O)c2cc1OC`, the melting point worked out at 117 °C.

On to `C=CCOc1ccc2c(C)cc(=O)oc2c1C(=O)C=Cc1ccccc1`, for which the melting point fell in the range of 136 to 139 °C.

`CC1(C)CC(NS(C)(=O)=O)c2cc(OCc3ccccc3)ccc2O1` (stereo not given) showed a melting point of 162 to 165 °C.

In turn, `COc1ccc(C2(C#Cc3cc(N4CN=C(C)O4)cs3)CCC(=O)CC2)cc1OC1CCCC1` gave a melting point of 90 to 91 °C.

The compound `CN(CCCNC(=O)c1c(Cl)ccc2nc3ccccc3nc12)CCCNC(=O)c1c(Cl)ccc2nc3ccccc3nc12` had a melting point of 206 to 207 °C.

Turning to `CCNC(=O)CN1C(=O)C(NC(=O)OCc2ccccc2)N=C(c2ccccc2)c2ccccc21` (stereo not given), the melting point amounted to 149 °C.

The compound `CCOC(=O)C=Cc1c(-c2ccccc2)nn2ccccc12` showed a melting point of 54 to 55 °C.

In turn, `Cc1cc(=O)c(OCC(=O)O)cn1C` came in with a melting point of 240 to 242 °C.

Regarding `Cc1ccc(N)c(C(=O)NCC(C)Cn2ccnc2)c1` (stereo not given), the melting point fell in the range of 120 to 122 °C.

In turn, `CC(C)c1ccc2c(c1)NC(=O)CC(c1ccnc(C#N)c1)=N2` gave a melting point of 173 to 178 °C.

In turn, `O=C(O)c1ccccc1C(=O)N1Cc2ccccc2Cc2ccccc21` returned a melting point of 220 to 225 °C.

The compound `CNC1CCCN(c2ccc3c(NC(=O)CC4CCCCC4)c(Cl)ccc3n2)C1` (stereo not given) registered a melting point of 158 to 159 °C.

For the compound `CC12CCC(=O)C(N)=C1CCC1C2CCC2(C)C(OC3CC3)CCC12` (stereo not given), the melting point was 85 to 88 °C.

With `CC1N=C(N2CCN(C)CC2)NN=C1c1ccccc1` (stereo not given), the melting point fell in the range of 124 to 125 °C.

Compound `O=Cc1nc2cc(F)ccc2s1` displayed a melting point of 105 to 107 °C.

In the case of `Cc1ccc2c(c1)C(O)CC21CCN(CCCC(=O)c2ccc(F)cc2)C1` (stereo not given), the melting point is 137 to 139 °C.
